# What was measured:
# estrogen biosynthesis [1] = details: Endocrinology 92, 866 (1973); Endocrinology 100, 1684 (1977); cited from earlier work
# estrogen biosynthesis [2] = test: In vitro inhibition of estrogen biosynthesis; format: biochemical
# estrogen biosynthesis [3] = test: In vivo inhibition of estrogen biosynthesis; set-up: species or system rat
# [4] = Release of compound from skin implant in rat studies; format: in vivo
# [5] = Polarity by thin layer chromatography; format: physicochemical; details: compared with 4-acetate-4-A
# [6] = system: Estrogen-dependent mammary tumors; test: In vivo effect on DMBA-induced estrogen-dependent mammary tumors in rats; set-up: species or system rat; details: after 4 weeks, wafer with 150 mg plus sc 2.5 mg/100 g twice daily
# Method: Estrogen-dependent mammary tumors where induced in rats with DMBA. Prior to treatment the 7 sample group rats had 23 tumors; the 6 control group rats had 17 tumors. During the initial treatment period the number of tumors increased to 28 for the sample group, 24 for the control group.
# The sample group was treated with implanted wafers containing 0.5 g silastic and 150 mg 4-acetate-4-A. The sample group was also treated twice daily for 4 weeks with sc injections of 4-acetate-4-A (2.5 mg/100 g animal) in a suspending vehicle. The control was treated the same except that 4-acetate-4-A was omitted from the wafers and the injection.
# mating in rats = test: In vivo effect on mating in rats (silastic wafer implant); set-up: species or system rat; details: 8 female rats
# Method: Female rats showing at least 2 consecutive 4-day cycles were used. On the day of diestrus I, a silastic wafer, was inserted under the dorsal skin of each rat. The wafer, about 25 mm in diameter and 1 mm thick, was prepared by polymerizing 0.5 g of Corning medical grade Silastic 382 with 75 mg 4-acetate-4-A, using stannous octoate catalyst. Each female was housed with 2 fertile males until mating occurred. Control animals were treated with same except that 4-acetate-4-A was omitted from the wafer.
# [7] = system: implantation in mated rats; test: In vivo effect on implantation in mated rats; set-up: species or system rat; details: 7 mated rats; 100 mg/kg daily by injection from Day 2 of pregnancy
# Method: Injections of 4-acetate-4-A in a suspending vehicle were begun at 0800 hr on Day 2 of pregnancy, and repeated thereafter at […], and at 2400 hr as 2/6 daily dose. The daily does was 100 mg of 4-acetate-4-A per kg of body weight. Control animals were treated the same except that only the suspending vehicle was injected.
structure (smiles),measurement,setting,value
"C[C@]12CCC(=O)C=C1C(=O)C[C@@H]1[C@@H]2CC[C@]2(C)C(=O)CC[C@@H]12 (stereo in doubt) [4-androstene-3,6,17-trione]",inhibition of estrogen biosynthesis (literature),estrogen biosynthesis [1],effective inhibitors of estrogen biosynthesis
"C[C@]12C=CC(=O)C=C1C=C[C@@H]1[C@@H]2CC[C@]2(C)C(=O)CC[C@@H]12 [1,4,6-androstatriene-3,17-dione]",inhibition of estrogen biosynthesis (literature),estrogen biosynthesis [1],effective inhibitors of estrogen biosynthesis
CC12CCC3C(CCC4=C(OC(=O)CCC(=O)O)C(=O)CCC43C)C1CCC2=O (stereo not shown) [4-hemisuccinate-4-A],ability to inhibit estrogen biosynthesis (in vitro),estrogen biosynthesis [2],marked ability to inhibit estrogen biosynthesis
same,ability to inhibit estrogen biosynthesis (in vivo),estrogen biosynthesis [3]; in vivo,marked ability to inhibit estrogen biosynthesis
"C[C@]12CCC(=O)C(O)=C1CC[C@@H]1[C@@H]2CC[C@]2(C)C(=O)CC[C@@H]12 [4-OH-4-A, 4-hydroxy-4-androstene-3,17-dione]",diffusion / release from skin implant,[4],does not diffuse as well from the implant
same,inhibition of estrogen biosynthesis (literature),estrogen biosynthesis [1],effective inhibitor of estrogen biosynthesis
same,polarity (thin layer chromatography),[5],less polar than 4-acetate-4-A
CCCCCCC(=O)OC1=C2CCC3C4CCC(=O)C4(C)CCC3C2(C)CCC1=O (stereo not shown) [4-heptanoate-4-A],ability to inhibit estrogen biosynthesis (in vitro),estrogen biosynthesis [2],This expectation has been borne out
"C[C@]12CC[C@H]3[C@@H](CCC4=CC(=O)CC[C@@H]43)[C@@H]1CCC2=O [4-estrene-3,17-dione]",inhibition of estrogen biosynthesis (literature),estrogen biosynthesis [1],effective inhibitors of estrogen biosynthesis
CC(=O)OC1=C2CCC3C4CCC(=O)C4(C)CCC3C2(C)CCC1=O (stereo not shown) [4-acetate-4-A],ovarian estrogen secretion,estrogen biosynthesis [3]; in vivo rat studies,lower ovarian estrogen secretion
same,tumors completely regressed,[6],64%
same,tumors regressed to less than 1/2 their pretreatment size,[6]; in addition to those completely regressed,32%
same,diffusion / release from skin implant,[4],"continuous, uniform release"
same,Number of animals mating on a given day: 1st,"mating in rats; 1st day, silastic wafer with 75 mg 4-acetate-4-A under dorsal skin",0
same,Number of animals mating on a given day: 6th,"mating in rats; 6th day, silastic wafer with 75 mg",2
same,Number of animals mating on a given day: 7th,"mating in rats; 7th day, silastic wafer with 75 mg",2
same,Number of animals mating on a given day: 15th day,"mating in rats; 15th day, silastic wafer with 75 mg",3
same,Number of animals mating on a given day: 2d,"mating in rats; 2d day, silastic wafer with 75 mg",1
same,Animals without implants,[7],4
same,Average number of normal-sized implants/animal,[7],1.7
same,Average number of small (<2.4 mm) implants/animal,[7],1.4
same,Number of animals affected by treatment,[7],7

# Reference: patent publication US4235893A, “Ester derivatives of 4-hydroxy-4-androstene-3,17-dione and a method for inhibiting estrogen biosynthesis” (priority 1978, dated 1980)
